According to PMC11949107, “Polyunsaturated fatty acids and their endocannabinoid-related metabolites activity at human TRPV1 and TRPA1 ion channels expressed in HEK-293 cells” (PeerJ, 2025):
Where “and” joins values, the source holds several entries; their conditions need not be identical. Identical values can stand only once.

Key:
human TRPV1 [1] = target: T1, human TRPV1 (Homo sapiens, UniProt Q8NER1); test: Calcium 5 dye [Ca]i assay in HEK-293 Flp-In T-REx cells expressing TRPV1 (agonist response); format: cell-based; settings: for Change in Ca5 fluorescence, individual experiments (CRC raw data): TRPV1 cells, listed as GLA
T1 construct: Life Technologies (cells); host or cells: Flp-In T-REx HEK-293
Procedure, shortened: (§1)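 Tetracycline-induced (1 µg ml^−1, 4 h) HEK-293 T-REx cells loaded with Calcium 5 dye plus 1.25 mM probenecid for 1 h; agonist added after 1 min baseline (0.1% DMSO final), fluorescence (485/525 nm) read every 2 s for 5 min at 37 °C. Response as % change from baseline, solvent-subtracted; EC50/Emax from three-parameter logistic fit, given as pEC50.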

human TRPA1 = target: T2, human TRPA1 (Homo sapiens, UniProt O75762); test: Calcium 5 dye [Ca]i assay in HEK-293 Flp-In T-REx cells expressing TRPA1 (agonist response); format: cell-based; settings: for [Ca]i response (change in fluorescence), individual replicates: sheet Figure 4, listed as GLA
T2 construct: Life Technologies (cells); host or cells: Flp-In T-REx HEK-293
Procedure, shortened: as §1

HEK-293 EV cells = test: Calcium 5 dye [Ca]i assay in HEK-293 empty vector (EV) cells; format: cell-based, human; settings: 10 µM; HEK-293 EV cells; percentage of predrug baseline
Procedure, shortened: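 Tetracycline at 1 µg ml^−1 was added 4 h before testing; cells were loaded with Calcium 5 dye for 1 h and read at 37 °C, with drug added after 1 min baseline (final 0.1% DMSO). The response was the % change from the 60 s baseline after solvent subtraction, and EC50/Emax came from a three-parameter logistic fit, reported as pEC50.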

human TRPV1 [2] = target: T1, human TRPV1; test: Pre-incubation with PUFAs or capsazepine, then capsaicin (10 nM) response in HEK-293 TRPV1 cells; format: cell-based
Procedure: Intracellular calcium [Ca]i levels were assessed using the calcium 5 kit from Molecular Devices (# R8186, Sunnyvale, CA, USA) on a FlexStation 3 Microplate Reader (Molecular Devices, Sunnyvale, CA, USA). […] Probenecid (cat # 50027; Biotium) which helps to prevent expulsion of calcium indicator from the cells was added to a final concentration of 1.25 mM. 90 µL of the dye were loaded into each well of the plate and incubated for 1 h before reading in the FlexStation 3 at 37 °C. Fluorescence was recorded every 2 s (λ excitation = 485 nm, λ emission = 525 nm) for 5 min. After 1 min of baseline recording, 20 µL of the drug, dissolved in HBSS with 1% dimethyl sulfoxide (DMSO) (cat # D2650; Sigma-Aldrich, Melbourne, Australia) was added (final DMSO concentration was 0.1% in well). […]

T2 sequence (O75762 whole entry): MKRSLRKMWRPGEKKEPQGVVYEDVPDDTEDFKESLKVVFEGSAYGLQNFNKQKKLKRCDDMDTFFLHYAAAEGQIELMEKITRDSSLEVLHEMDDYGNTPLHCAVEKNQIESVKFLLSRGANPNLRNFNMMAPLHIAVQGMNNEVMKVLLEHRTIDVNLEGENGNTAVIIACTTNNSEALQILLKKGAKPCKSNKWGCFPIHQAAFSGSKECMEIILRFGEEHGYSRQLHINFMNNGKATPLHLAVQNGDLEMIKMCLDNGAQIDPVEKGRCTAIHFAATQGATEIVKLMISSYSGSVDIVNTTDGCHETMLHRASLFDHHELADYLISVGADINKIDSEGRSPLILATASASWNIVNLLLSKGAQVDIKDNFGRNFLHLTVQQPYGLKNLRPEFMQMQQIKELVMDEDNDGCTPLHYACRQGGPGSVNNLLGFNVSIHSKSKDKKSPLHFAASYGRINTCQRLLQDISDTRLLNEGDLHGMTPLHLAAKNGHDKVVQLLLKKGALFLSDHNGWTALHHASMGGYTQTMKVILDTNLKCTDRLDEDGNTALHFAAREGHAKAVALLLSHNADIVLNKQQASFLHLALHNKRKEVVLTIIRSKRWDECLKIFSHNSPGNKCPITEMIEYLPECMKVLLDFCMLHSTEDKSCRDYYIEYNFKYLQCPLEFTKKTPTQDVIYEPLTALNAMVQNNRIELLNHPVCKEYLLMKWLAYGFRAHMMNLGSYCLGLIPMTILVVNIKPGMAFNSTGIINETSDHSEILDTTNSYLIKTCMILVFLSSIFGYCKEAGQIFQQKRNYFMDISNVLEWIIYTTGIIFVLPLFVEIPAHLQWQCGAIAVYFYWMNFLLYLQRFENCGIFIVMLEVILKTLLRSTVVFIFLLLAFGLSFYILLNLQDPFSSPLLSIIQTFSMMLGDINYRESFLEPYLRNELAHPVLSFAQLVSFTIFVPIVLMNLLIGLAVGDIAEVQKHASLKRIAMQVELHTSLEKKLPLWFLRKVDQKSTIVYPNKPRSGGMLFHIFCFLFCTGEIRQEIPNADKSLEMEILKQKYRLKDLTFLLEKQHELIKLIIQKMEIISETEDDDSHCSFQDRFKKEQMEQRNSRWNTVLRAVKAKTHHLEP
T1 sequence (Q8NER1 whole entry): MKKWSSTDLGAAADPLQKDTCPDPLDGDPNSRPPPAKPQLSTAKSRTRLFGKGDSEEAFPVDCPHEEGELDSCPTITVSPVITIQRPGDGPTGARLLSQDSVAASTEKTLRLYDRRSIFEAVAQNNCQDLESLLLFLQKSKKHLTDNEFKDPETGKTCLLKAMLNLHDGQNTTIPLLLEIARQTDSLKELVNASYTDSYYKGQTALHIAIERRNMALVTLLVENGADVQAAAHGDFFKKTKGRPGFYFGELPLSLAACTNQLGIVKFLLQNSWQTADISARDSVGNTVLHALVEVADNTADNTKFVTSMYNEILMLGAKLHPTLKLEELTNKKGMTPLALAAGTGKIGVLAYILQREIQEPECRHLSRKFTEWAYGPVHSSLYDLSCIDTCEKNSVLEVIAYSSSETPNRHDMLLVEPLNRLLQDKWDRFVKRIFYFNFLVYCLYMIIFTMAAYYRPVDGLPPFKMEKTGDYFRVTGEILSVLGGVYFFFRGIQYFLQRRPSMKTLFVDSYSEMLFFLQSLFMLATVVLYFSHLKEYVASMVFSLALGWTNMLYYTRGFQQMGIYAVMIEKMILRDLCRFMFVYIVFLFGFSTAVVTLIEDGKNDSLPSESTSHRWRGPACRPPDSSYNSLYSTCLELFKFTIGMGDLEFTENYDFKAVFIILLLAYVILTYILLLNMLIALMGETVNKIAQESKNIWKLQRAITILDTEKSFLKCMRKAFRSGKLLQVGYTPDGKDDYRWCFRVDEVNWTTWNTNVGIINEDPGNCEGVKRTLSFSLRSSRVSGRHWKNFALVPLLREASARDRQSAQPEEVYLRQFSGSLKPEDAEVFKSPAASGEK

CCCCC/C=C\C/C=C\C/C=C\CCCCC(=O)O [γ-LA, γ-linolenic acid]
Elevation of [Ca]i in HEK-293 TRPV1 cells compared with HEK-293 EV cells (human TRPV1 [1]; 10 µM): did not produce a notable change
Change of Ca5 fluorescence, Mean ± SEM, TRPV1 (10 µM) (human TRPV1 [1]; 10 µM, HEK-293 TRPV1 cells, percentage of predrug baseline): 10 ± 1%
Change in Ca5 fluorescence, individual experiments (CRC raw data) (human TRPV1 [1]; log concentration -4.52288 (M)): 27.0827 and 92.1911 and 21.8805 and 27.2504 and 40.8812 and 31.4387
Change in Ca5 fluorescence, individual experiments (CRC raw data) (human TRPV1 [1]; log concentration -5 (M)): 15.417 and 9.771 and 8.536 and 10.7081 and 5.47 and 8.301
Change in Ca5 fluorescence, individual experiments (CRC raw data) (human TRPV1 [1]; log concentration -5.52288 (M)): 2.0403 and 1.257 and 4.6526 and 4.706 and 2.248 and 2.361
Change in Ca5 fluorescence, individual experiments (CRC raw data) (human TRPV1 [1]; log concentration -6 (M)): 3.899 and 2.392 and 3.26 and 4.994 and 2.614 and 2.892
Change in Ca5 fluorescence, individual experiments (CRC raw data) (human TRPV1 [1]; log concentration -6.52288 (M)): -0.6308 and 4.773 and 3.415 and 10.3597 and 1.966 and 2.796
Change in Ca5 fluorescence, individual experiments (CRC raw data) (human TRPV1 [1]; log concentration -7 (M)): 0.359 and 3.081 and 7.321 and 1.04 and 2.553
Elevation of [Ca]i in HEK-293 TRPA1 cells compared with HEK-293 EV cells (human TRPA1; 10 µM (cinnamaldehyde 300 µM)): did not produce a change
Change of Ca5 fluorescence, Mean ± SEM, TRPA1 (10 µM) (human TRPA1; 10 µM, HEK-293 TRPA1 cells, percentage of predrug baseline): 112 ± 61%
TRPA1 activation at the highest concentration tested (human TRPA1; 30 µM): activated TRPA1
Emax at 30 µM (human TRPA1; HEK293, read-out: Emax ± SEM % TRPA1 (30 µM)): 255 ± 73%
[Ca]i response (change in fluorescence), individual replicates (human TRPA1; concentration -4.52288 (log)): 481.429 and 335.153 and 71.3202 and 67.3187 and 162.48 and 414.065
[Ca]i response (change in fluorescence), individual replicates (human TRPA1; concentration -5 (log)): 268.343 and 23.3711 and 10.7965 and 8.59 and 23.2369 and 338.225
[Ca]i response (change in fluorescence), individual replicates (human TRPA1; concentration -5.52288 (log)): 2.578 and 5.507 and 0.9073 and 7.069 and 268.915
[Ca]i response (change in fluorescence), individual replicates (human TRPA1; concentration -6 (log)): 0.8222 and 0.07304 and 2.068 and 3.637 and 4.16 and 7.0167
[Ca]i response (change in fluorescence), individual replicates (human TRPA1; concentration -6.52288 (log)): 0.1101 and 1.014 and 7.308 and 0.3513 and 4.285 and 9.421
[Ca]i response (change in fluorescence), individual replicates (human TRPA1; concentration -7 (log)): 0.1516 and -0.4942 and 5.21 and 2.462 and 4.3545 and 5.724
Change of Ca5 fluorescence, Mean ± SEM, EV (10 µM) (HEK-293 EV cells): 9 ± 2%
Effect of pre-treatment on the capsaicin response (human TRPV1 [2]; 10 µM, 5 min exposure, then capsaicin 10 nM): did not affect
Post-capsaicin: response to subsequent capsaicin addition, individual experiments (human TRPV1 [2]; capsaicin 10 nM after 5 min drug 10 µM, TRPV1 cells, listed as GLA): 270.139 and 251.245 and 119.532 and 316.43 and 265.849 and 338.308
Pre-capsaicin: response to first drug, individual experiments (human TRPV1 [2]; drug 10 µM for 5 min, TRPV1 cells, listed as GLA): 11.5745 and 14.3439 and 14.381 and 3.4398 and 10.3554 and 15.8417
